Results: article PMC9297786 (Molecular Oncology, 2022)

biological target: T1, ephrin type‐B receptor 4 (EPHB4) (Homo sapiens, UniProt P54760); assay: Kinase‐Glo Plus luminescence kinase assay; SPR binding also measured; format: biochemical; conditions: not given
T1 construct: EPHB4 kinase (Carna Biosciences)
T1 sequence (P54760 16-987): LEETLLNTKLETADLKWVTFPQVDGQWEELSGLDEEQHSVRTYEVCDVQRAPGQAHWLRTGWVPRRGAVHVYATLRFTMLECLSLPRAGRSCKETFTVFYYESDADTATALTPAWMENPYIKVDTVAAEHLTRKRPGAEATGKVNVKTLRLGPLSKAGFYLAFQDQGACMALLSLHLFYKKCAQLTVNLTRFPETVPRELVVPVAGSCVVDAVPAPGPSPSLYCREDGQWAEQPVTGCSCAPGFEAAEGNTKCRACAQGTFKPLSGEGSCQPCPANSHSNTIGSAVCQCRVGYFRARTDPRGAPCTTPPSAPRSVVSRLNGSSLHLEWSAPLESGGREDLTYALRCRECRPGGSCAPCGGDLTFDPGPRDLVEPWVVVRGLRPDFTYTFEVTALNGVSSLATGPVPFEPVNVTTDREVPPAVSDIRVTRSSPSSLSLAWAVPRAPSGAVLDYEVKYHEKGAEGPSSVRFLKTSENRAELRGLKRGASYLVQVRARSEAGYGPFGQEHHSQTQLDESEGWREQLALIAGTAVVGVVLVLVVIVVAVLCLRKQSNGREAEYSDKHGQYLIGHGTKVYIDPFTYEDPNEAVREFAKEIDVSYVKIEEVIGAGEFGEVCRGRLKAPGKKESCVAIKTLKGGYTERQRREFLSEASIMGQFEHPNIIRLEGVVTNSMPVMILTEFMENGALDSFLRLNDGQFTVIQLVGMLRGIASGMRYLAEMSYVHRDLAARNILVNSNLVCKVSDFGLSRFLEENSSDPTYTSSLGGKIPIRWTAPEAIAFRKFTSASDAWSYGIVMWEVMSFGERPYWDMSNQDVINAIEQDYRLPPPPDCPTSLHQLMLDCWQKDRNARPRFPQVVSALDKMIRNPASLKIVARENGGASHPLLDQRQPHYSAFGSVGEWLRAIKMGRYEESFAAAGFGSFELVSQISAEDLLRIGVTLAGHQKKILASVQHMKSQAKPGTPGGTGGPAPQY
Description: Kinase‐Glo Plus luminescence kinase assay; SPR binding also measured on ephrin type‐B receptor 4 (EPHB4) | […]

| Compound | IC50 [µM] |
| --- | --- |
| Cc1ccc(C(=O)Nc2cccc(C(F)(F)F)c2)cc1Nc1nc(-c2cccnc2)nc2c1cnn2C [NVP‐BHG712] | 0.349 |

tested on: K562; assay: cells; set-up: MTT cell growth inhibition assay, absorbance at 490 nm; conditions: Homo sapiens, K562, 48 h, read-out: Inhibition rate (%, 10 μM)
Method: Exponential‐phase cells were seeded into 96‐well plates at a density of 2 × 10^4 cells per well in complete medium. After 24 h, cells were treated with drugs at indicated concentrations and incubated for 48 h. Fresh medium containing 20 μL MTT solution (5 mg·mL^−1) was then added to each well. Then plates were incubated for another 4 h at 37 °C. After removing the medium, 150 μL DMSO was added to each well. The absorbance was recorded at 490 nm in the microplate reader and the inhibition ratio (I%) was calculated. The cell growth assay was conducted as described previously. K562 cells were cultured in IMDM containing 10% fetal bovine serum, 100 U·mL^−1 penicillin and 100 U·mL^−1 streptomycin. […] MEG‐01 cells were cultured in DMEM containing 10% fetal bovine serum, 100 U·mL^−1 penicillin and 100 U·mL^−1 streptomycin. […] Cells were grown at 37 °C in a humidified atmosphere with 5% CO2. […] To identify an EPHB4‐specific inhibitor with a potential of rapid translation into clinic, a pool of clinically approved TKIs and compounds was screened in this study (Fig. S2 and Table S4).

| Compound | inhibition at 10 µM [%] |
| --- | --- |
| O=C(/C=C/c1ccc(O)c2oc(-c3ccc(O)c(O)c3)cc12)O[C@H](Cc1ccc(O)c(O)c1)C(=O)O [salvianolic acid C] | -2.73 |
| CC(C)(C)NC(=O)[C@@H]1C[C@@H]2CCCC[C@@H]2CN1C[C@@H](O)[C@H](Cc1ccccc1)NC(=O)[C@H](CC(N)=O)NC(=O)c1ccc2ccccc2n1 [saquinavir] | -30.4 |
| CNC(=O)c1cc(Oc2ccc(NC(=O)Nc3ccc(Cl)c(C(F)(F)F)c3)cc2)ccn1 [sorafenib] | 73.4 |
| CC(C)NCC(O)c1ccc(NS(C)(=O)=O)cc1 (stereo not shown) [sotalol] | -52.8 |
| CCN(CC)CCNC(=O)c1c(C)[nH]c(/C=C2\C(=O)Nc3ccc(F)cc32)c1C [sunitinib] | 73.5 |
| O=C1Nc2ccc(Cl)cc2[C@@](C#CC2CC2)(C(F)(F)F)O1 [sustiva] | -40.1 |
| CCOc1ccccc1OCCN[C@H](C)Cc1ccc(OC)c(S(N)(=O)=O)c1 [tamsulosin] | -35.2 |
| CCCc1nc2c(C)cc(-c3nc4ccccc4n3C)cc2n1Cc1ccc(-c2ccccc2C(=O)O)cc1 [telmisartan] | -8.14 |
| COc1cc2nc(N3CCN(C(=O)C4CCCO4)CC3)nc(N)c2cc1OC (stereo not shown) [terazosin] | -57 |
| CC(C)(C)NCC(O)c1cc(O)cc(O)c1 (stereo not shown) [terbutaline] | -58.2 |
| COc1cc2c(cc1OC)[C@@H]1Cc3ccc(OC)c(OC)c3CN1CC2 [tetrahydropalmatine] | -83.4 |
| CC(C)[C@H](N)C(=O)OCCOCn1cnc2c(=O)nc(N)[nH]c21 [valaciclovir] | -63.9 |
| CCCCC(=O)N(Cc1ccc(-c2ccccc2-c2nnn[nH]2)cc1)[C@H](C(=O)O)C(C)C [valsartan] | -32.4 |
| COc1cc2c(Nc3ccc(Br)cc3F)ncnc2cc1OCC1CCN(C)CC1 [vandetanib, N‐(4‐bromo‐2‐fluorophenyl)‐6‐methoxy‐7‐[(1‐methylpiperidin‐4‐yl)methoxy]quinazolin‐4‐amine] | 99.7 |
| COc1cc(C=O)ccc1O [vanillin] | -86.2 |
| COc1ccc(CCN(C)CCCC(C#N)(c2ccc(OC)c(OC)c2)C(C)C)cc1OC (stereo not shown) [verapamil] | 66 |
| COc1c2occc2cc2ccc(=O)oc12 [xanthotoxin] | -42.2 |
| Cc1cn([C@H]2C[C@H](N=[N+]=[N-])[C@@H](CO)O2)c(=O)[nH]c1=O [zidovudine] | 10.3 |

same assay, conditions: Homo sapiens, K562, 48 h; read-out: Inhibition rate (%, 10 μM)

| Compound | inhibition at 10 µM [%] |
| --- | --- |
| COC1=C[C@@H]2[C@@H]3Cc4ccc(OC)c(O)c4[C@]2(CCN3C)CC1=O [sinomenine] | -4.7 |
| COC1=CC=C2[C@H]3Cc4ccc(OC)c5c4[C@@]2(CCN3C)[C@H]1O5 [thebaine] | -58.3 |

tested on: K562; assay: cells; set-up: MTT cell viability of wild-type K562 beside EPHB4 mutant sublines, 48 h; conditions: Homo sapiens, K562, 48 h; read-out: IC50 (uM) K562-WT
Method: Exponential‐phase cells were seeded into 96‐well plates at a density of 2 × 10^4 cells per well in complete medium. After 24 h, cells were treated with drugs at indicated concentrations and incubated for 48 h. Fresh medium containing 20 μL MTT solution (5 mg·mL^−1) was then added to each well. Then plates were incubated for another 4 h at 37 °C. After removing the medium, 150 μL DMSO was added to each well. The absorbance was recorded at 490 nm in the microplate reader and the inhibition ratio (I%) was calculated. The cell growth assay was conducted as described previously. […] Similar results were shown for M4 mutants. […] (a) Three‐dimensional structure graph; (b) binding region; (c) plane schematic of interaction between the receptor and ligand. (B) Genomic position of sgRNAs and PAMs for EPHB4 knock‐out line, PAM site was colored in red. (C) The protein expression of EPHB4 in K562, K562‐Crispr‐1 and K562‐Crispr‐2 cells determined by western blot assay. P‐values were generated by one‐way ANOVA using the Tukey test for multiple comparisons. **P < 0.01 versus the K562 group. […] P‐values were generated by one‐way ANOVA using the Tukey test for multiple comparisons. *P < 0.05 versus the K562 group. (E) Five point‐mutation (M1–M5) and their corresponding wild‐type (WT) sequences. The point‐mutations of EPHB4: M1, I14A, G15A; M2, M83A, N85A, G86A; M3, A87Del; M4, S90A, F91A; M5, R93A, L94A. […]

| Compound | IC50 [µM] |
| --- | --- |
| COc1cc2c(Nc3ccc(Br)cc3F)ncnc2cc1OCC1CCN(C)CC1 [vandetanib, N‐(4‐bromo‐2‐fluorophenyl)‐6‐methoxy‐7‐[(1‐methylpiperidin‐4‐yl)methoxy]quinazolin‐4‐amine] | 2.05 ± 1.08 |

tested on: H9 cells; assay: cells; set-up: MTT cell growth inhibition after 48 h; conditions: Homo sapiens, H9, 48 h
Method: (§1) Exponential‐phase cells were seeded into 96‐well plates at a density of 2 × 10^4 cells per well in complete medium. After 24 h, cells were treated with drugs at indicated concentrations and incubated for 48 h. Fresh medium containing 20 μL MTT solution (5 mg·mL^−1) was then added to each well. Then plates were incubated for another 4 h at 37 °C. After removing the medium, 150 μL DMSO was added to each well. The absorbance was recorded at 490 nm in the microplate reader and the inhibition ratio (I%) was calculated. The cell growth assay was conducted as described previously. […] To identify an EPHB4‐specific inhibitor with a potential of rapid translation into clinic, a pool of clinically approved TKIs and compounds was screened in this study (Fig. S2 and Table S4).

| Compound | IC50 [µM] |
| --- | --- |
| COc1cc2c(Nc3ccc(Br)cc3F)ncnc2cc1OCC1CCN(C)CC1 [vandetanib, N‐(4‐bromo‐2‐fluorophenyl)‐6‐methoxy‐7‐[(1‐methylpiperidin‐4‐yl)methoxy]quinazolin‐4‐amine] | 11.2 ± 1.08 |

tested on: K562; assay: cells; set-up: MTT cell growth inhibition after 48 h; conditions: Homo sapiens, K562, 48 h
Method: as §1

| Compound | IC50 [µM] |
| --- | --- |
| COc1cc2c(Nc3ccc(Br)cc3F)ncnc2cc1OCC1CCN(C)CC1 [vandetanib, N‐(4‐bromo‐2‐fluorophenyl)‐6‐methoxy‐7‐[(1‐methylpiperidin‐4‐yl)methoxy]quinazolin‐4‐amine] | 2.18 ± 1.07 |

tested on: MEG-01 cells; assay: cells; set-up: MTT cell growth inhibition after 48 h; conditions: Homo sapiens, MEG-01, 48 h
Method: as §1

| Compound | IC50 [µM] |
| --- | --- |
| COc1cc2c(Nc3ccc(Br)cc3F)ncnc2cc1OCC1CCN(C)CC1 [vandetanib, N‐(4‐bromo‐2‐fluorophenyl)‐6‐methoxy‐7‐[(1‐methylpiperidin‐4‐yl)methoxy]quinazolin‐4‐amine] | 1.46 ± 1.07 |
